Test results published in patent USRE48461E1, “Modulation of androgen receptor expression” (Ionis Pharmaceuticals, Inc., priority 2012, dated 2021).
Oligonucleotides are written 5' to 3', each unit as a sugar letter and its base; * is a phosphorothioate linkage, no mark a phosphodiester; rarer units and linkages stand in square brackets, end groups in braces. Plain capitals give the bases only. k = constrained ethyl (cEt); [5mC] = 5-methylcytosine; d = 2'-deoxy (DNA)

Key:
[1] = system: C4-2B MR cells; test: Proliferation of MDV3100-resistant C4-2B cells (CellTiter 96); format: cell-based, human; settings: 0.04-5.00 μM, 6 days
Summary of the method: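 Antisense oligonucleotides were added to the culture medium at 0.04, 0.20, 1.00 and 5.00 μM, with a non-targeting oligonucleotide as negative control. After 6 days of treatment, proliferation was read with CellTiter 96 AQueous One. Values are percent inhibition relative to untreated cells.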

[2] = system: AR full-length mRNA; test: AR full-length mRNA in CWR22-RV1 cells (RNAiMax, RTS3559); format: cell-based, human; settings: 6 days
Experimental: (§1) CWR22-RV1 cells were plated and transfected using RNAiMax reagent (Life Technologies) with ISIS oligonucleotides at 1.7 nM, 5.0 nM, 16.7 nM, or 50 nM concentrations. ISIS 347526 was included as a negative control. After a treatment period of 6 days, the target reduction and proliferative capacity of the cancer cells was measured.
(§2) Antisense inhibition of AR full-length mRNA was measured with the RTS3559 primer probe set. The results are presented in Table 63 as percent inhibition relative to non-treated cells. The reduction in V7 splice variant of the AR mRNA was also measured by RT-PCR using SYBR Green staining (Hu, R. et al., Cancer Res. 2009. 69: 16-22). The results are presented in Table 64, as percent reduction, relative to non-treated cells. Cell proliferation was measured with CellTiter 96® AQueous One Solution Cell Proliferation kit (Promega), following the manufacturer's instructions. Results are presented in Table 65 as percent inhibition of proliferation, relative to non-treated cells.

[3] = system: total AR mRNA; test: Total (full-length) AR mRNA in C4-2B MR cells, free uptake; format: cell-based, human; settings: C4-2B MR cells, 0.04-5.00 μM free uptake, 24 hrs
Summary of the method: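 Cells grown in RPMI1640 with 10% FBS received antisense oligonucleotides at 0.04, 0.20, 1.00 and 5.00 μM in the medium by free uptake, no transfection agent. After 24 hrs, total AR mRNA quantified by real-time qPCR with primer probe set RTS3559.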

[4] = system: CWR22-RV1 cells; test: CWR22-RV1 cell proliferation (CellTiter 96); format: cell-based, human; settings: RNAiMax, 6 days
Experimental: as §1, §2

[5] = system: V7 splice variant of the AR mRNA; test: AR V7 splice variant mRNA in CWR22-RV1 cells (RT-PCR SYBR Green); format: cell-based, human; settings: RNAiMax, 6 days
Experimental: as §1, §2

[6] = system: KLK2 mRNA; test: KLK2 mRNA (AR target gene) in C4-2B MR cells; format: cell-based, human; settings: C4-2B MR cells, 0.04-5.00 μM
[7] = system: AR mRNA; test: AR mRNA in C4-2B cells by free uptake (hAR_LTS00943); format: cell-based, human; settings: 24 hrs; for Percent inhibition of AR full-length mRNA: free uptake
Experimental: (§3) Cells were plated at a concentration of 1,000 cells/well in 96-well plates to measure cell proliferation, and at 4,000 cells/well to measure target reduction. ISIS 549458, ISIS 549372, ISIS 549434, and ISIS 554221 were added individually at 0.04 μM, 0.20 μM, 1.00 μM, or 5.00 μM. After an incubation period of 24 hrs, mRNA levels were measured using hAR_LTS00943.

[8] = system: C4-2B cells; test: C4-2B cell proliferation by free uptake (MTT); format: cell-based, human; settings: day 6
Experimental: as §3
On day 6, cells plated for measuring proliferation were incubated with MTT reagent until the development of color. Color intensity was measured using a spectrophotometer at 490 nm.

[9] = system: full-length AR; test: Western blot of full-length AR in MDV3100-resistant C4-2B cells; format: cell-based, human; settings: C4-2B MR cells (Example 16)
Experimental: ISIS 549372, ISIS 549434, and ISIS 554221 at 1 μM concentration of antisense oligonucleotide were each added to the culture media at 1 μM concentration for free uptake by the cells. After a treatment period of 2 days, cells were harvested in RIPA buffer containing protease inhibitors. The presence of bands for full-length AR, as well as the variant form, AR-V7, was detected by western blot using AR antibody (N-20, Santa Cruz).
Western analysis of full-length AR, as well as the AR-V7 variant, was also conducted in a manner similar to the assay described above.

[10] = system: KLK3 mRNA; test: KLK3 mRNA (AR target gene) in C4-2B MR cells; format: cell-based, human; settings: C4-2B MR cells, 0.04-5.00 μM
[11] = cynomolgus monkey, in vivo, sc, 40 mg/kg
[12] = cynomolgus monkey, in vivo, sc, 40 mg/kg; remark: listed apart in the source
Experimental: (§4) Prior to the study, the monkeys were kept in quarantine for a 30-day period, during which the animals were observed daily for general health. The monkeys were 2-4 years old and weighed between 2 and 4 kg. Thirteen groups of four randomly assigned male cynomolgus monkeys each were injected subcutaneously with ISIS oligonucleotide or PBS. PBS solution or ISIS oligonucleotides, at a dose of 40 mg/kg, were administered with a loading regimen consisting of four doses on the first week of the study (days 1, 3, 5, and 7), followed by a maintenance regimen consisting of once weekly administration starting on Day 14 (weeks 2 to 6). Subcutaneous injections were performed in clock-wise rotations at 4 sites on the back; one site per dose. The injection sites were delineated by tattoo, while sedated using ketamine, and were separated by a minimum of 3 cm.
To evaluate the effect of ISIS oligonucleotides on the overall health of the animals, body and organ weights were measured.

[13] = cynomolgus monkey, in vivo, sc, 40 mg/kg; remark: listed apart in the source
Experimental: as §4
Kidney function was also assessed by urinalysis. Fresh urine from all animals was collected on day 44 using a clean cage pan on wet ice. Food was removed overnight the day before fresh urine collection was done but water was supplied. The total protein and creatinine levels were measured using a Toshiba 120FR NEO automated chemistry analyzer (Toshiba Co., Japan) and the protein to creatinine ratio was calculated.

[14] = cynomolgus monkey, in vivo, sc, 40 mg/kg; remark: listed apart in the source
[15] = cynomolgus monkey, in vivo, sc, 40 mg/kg; remark: listed apart in the source
[16] = cynomolgus monkey, in vivo, sc, 40 mg/kg; remark: listed apart in the source
Experimental: as §4
To evaluate the effect of ISIS oligonucleotides on kidney function, the monkeys were fasted overnight. Approximately, 1.5 mL of blood samples were collected from all the study groups on day 44. Blood was collected in tubes without anticoagulant for serum separation. The tubes were kept at room temperature for a minimum of 90 min and then centrifuged at 3,000 rpm for 10 min. Levels of BUN and creatinine were measured using a Toshiba 120FR NEO chemistry analyzer (Toshiba Co., Japan).

[17] = cynomolgus monkey, in vivo, sc, 40 mg/kg; remark: listed apart in the source
Experimental: as §4
The concentrations of the full-length oligonucleotide in the kidney and the liver of select treatment groups were measured. The method used is a modification of previously published methods (Leeds et al., 1996; Geary et al., 1999) which consist of a phenol-chloroform (liquid-liquid) extraction followed by a solid phase extraction.

[18] = system: testosterone; test: Serum testosterone levels in cynomolgus monkeys (ELISA); format: in vivo; settings: cynomolgus monkey, 40 mg/kg subcutaneously, 40 mg/kg
Experimental: Serum testosterone protein levels were measured in the plasma with an ELISA kit (Enzo Life Sciences), following the manufacturer's instructions.

Substance: CTAAACTTCCCGTGGC (k[5mC]*kT*kA*dA*dA*d[5mC]*dT*dT*d[5mC]*d[5mC]*d[5mC]*dG*dT*kG*kG*k[5mC]) [ISIS 549434, targets 3'-end of exon 8]
- proliferation of C4-2B MR cells [1]: reduced proliferation of the cells in a dose dependent manner more extensively than treatment with ISIS 554221
- Percent inhibition of AR full-length mRNA ([2]; dose 5.0 nM): 46%
- Percent inhibition of AR full-length mRNA ([2]; dose 16.7 nM): 69%
- Percent inhibition of AR full-length mRNA ([2]; dose 50.0 nM): 86%
- total AR transcript levels [3]: reduced total AR transcript levels in a dose dependent manner more extensively than treatment with ISIS 554221
- Percent inhibition of cell proliferation ([4]; dose 5.0 nM): 15%
- Percent inhibition of cell proliferation ([4]; dose 16.7 nM): 13%
- Percent inhibition of cell proliferation ([4]; dose 50.0 nM): 38%
- Percent inhibition of AR splice variant, V7 ([5]; dose 5.0 nM): 20%
- Percent inhibition of AR splice variant, V7 ([5]; dose 16.7 nM): 4%
- Percent inhibition of AR splice variant, V7 ([5]; dose 50.0 nM): 23%
- AR target gene KLK2 mRNA levels [6]: reduced target gene levels in a dose dependent manner more extensively than treatment with ISIS 554221
- AR mRNA expression ([7]; free uptake 0.04-5.00 μM): inhibited AR mRNA expression more potently than ISIS 554221
- Percent inhibition of AR full-length mRNA ([7]; dose 0.04 μM): 10%
- Percent inhibition of AR full-length mRNA ([7]; dose 0.20 μM): 35%
- Percent inhibition of AR full-length mRNA ([7]; dose 1.00 μM): 52%
- Percent inhibition of AR full-length mRNA ([7]; dose 5.00 μM): 55%
- Percent inhibition of cell proliferation ([8]; dose 0.04 μM): 0%
- Percent inhibition of cell proliferation ([8]; dose 0.20 μM): 14%
- Percent inhibition of cell proliferation ([8]; dose 1.00 μM): 35%
- Percent inhibition of cell proliferation ([8]; dose 5.00 μM): 37%
- levels of full-length AR (Western analysis) [9]: reduced levels of full-length AR
- AR target gene KLK3 mRNA levels [10]: reduced target gene levels in a dose dependent manner more extensively than treatment with ISIS 554221

Substance: GATTTAATGGTTGCAA (cEt gapmer chemistry, further chemistry not given here) [ISIS 586124]
- HCT [11]: 45%
- Hemoglobin [11]: 13.6 g/dL
- Platelets [11]: 391000 µL
- RBC [11]: 5.8e+06 µL
- WBC [11]: 10400 µL
- Body Wt [12]: 2.5 kg
- Heart weight [12]: 9.4 g
- Kidney weight [12]: 14 g
- Liver weight [12]: 58 g
- Mesenteric lymph nodes weight [12]: 2.8 g
- Spleen weight [12]: 3.3 g
- Urine protein/creatinine ratio [13]: 0.01
- C3 (% of baseline) [14]: 93 % of baseline
- CRP [14]: 4.0 mg/dL
- ALT [15]: 56 IU/L
- AST [15]: 94 IU/L
- Albumin [15]: 3.9 g/dL
- Plasma BUN [16]: 23.8 mg/dL
- Plasma Creatinine [16]: 0.87 mg/dL

Substance: ISIS 583918: antisense compound targeted to human AR (AGTCGCGACTCTGGTA; 3-10-3 (S)-cEt gapmer, further chemistry not given here)
- HCT [11]: 46%
- Hemoglobin [11]: 13.3 g/dL
- Platelets [11]: 435000 µL
- RBC [11]: 5.8e+06 µL
- WBC [11]: 12700 µL
- Body Wt [12]: 2.5 kg
- Heart weight [12]: 8.9 g
- Kidney weight [12]: 12 g
- Liver weight [12]: 60 g
- Mesenteric lymph nodes weight [12]: 3.5 g
- Spleen weight [12]: 4.6 g
- Urine protein/creatinine ratio [13]: 0.01
- C3 (% of baseline) [14]: 89 % of baseline
- CRP [14]: 3.5 mg/dL
- ALT [15]: 75 IU/L
- AST [15]: 73 IU/L
- Albumin [15]: 4.1 g/dL
- Plasma BUN [16]: 24.5 mg/dL
- Plasma Creatinine [16]: 0.87 mg/dL

Substance: ISIS 584149: antisense compound targeted to human AR (GTCAATATCAAAGCAC; 3-10-3 (S)-cEt gapmer, further chemistry not given here)
- HCT [11]: 45%
- Hemoglobin [11]: 13.7 g/dL
- Platelets [11]: 478000 µL
- RBC [11]: 5.7e+06 µL
- WBC [11]: 11300 µL
- Body Wt [12]: 2.5 kg
- Heart weight [12]: 9.3 g
- Kidney weight [12]: 13 g
- Liver weight [12]: 60 g
- Mesenteric lymph nodes weight [12]: 2.1 g
- Spleen weight [12]: 2.2 g
- Urine protein/creatinine ratio [13]: 0.01
- C3 (% of baseline) [14]: 110 % of baseline
- CRP [14]: 1.7 mg/dL
- ALT [15]: 57 IU/L
- AST [15]: 58 IU/L
- Albumin [15]: 4.5 g/dL
- Plasma BUN [16]: 26.4 mg/dL
- Plasma Creatinine [16]: 0.85 mg/dL

Substance: ISIS 584163: antisense compound targeted to human AR (GAACATTATTAGGCTA; 3-10-3 (S)-cEt gapmer, further chemistry not given here)
- HCT [11]: 44%
- Hemoglobin [11]: 12.8 g/dL
- Platelets [11]: 461000 µL
- RBC [11]: 5.5e+06 µL
- WBC [11]: 9100 µL
- Body Wt [12]: 2.5 kg
- Heart weight [12]: 8.4 g
- Kidney weight [12]: 15 g
- Liver weight [12]: 54 g
- Mesenteric lymph nodes weight [12]: 3.3 g
- Spleen weight [12]: 3.2 g
- Urine protein/creatinine ratio [13]: 0.01
- C3 (% of baseline) [14]: 102 % of baseline
- CRP [14]: 1.0 mg/dL
- ALT [15]: 50 IU/L
- AST [15]: 68 IU/L
- Albumin [15]: 4.2 g/dL
- Plasma BUN [16]: 22.4 mg/dL
- Plasma Creatinine [16]: 0.82 mg/dL

Substance: TGATTTAATGGTTGCA [ISIS 569221] (cEt/MOE gapmer chemistry, further chemistry not given here)
- HCT [11]: 45%
- Hemoglobin [11]: 12.9 g/dL
- Platelets [11]: 406000 µL
- RBC [11]: 5.6e+06 µL
- WBC [11]: 11100 µL
- Body Wt [12]: 2.5 kg
- Heart weight [12]: 8.5 g
- Kidney weight [12]: 14 g
- Liver weight [12]: 68 g
- Mesenteric lymph nodes weight [12]: 3.5 g
- Spleen weight [12]: 3.3 g
- C3 (% of baseline) [14]: 91 % of baseline
- CRP [14]: 4.9 mg/dL
- ALT [15]: 48 IU/L
- AST [15]: 73 IU/L
- Albumin [15]: 4.0 g/dL
- Oligonucleotide concentration, Kidney [17]: 1372 μg/g tissue
- Oligonucleotide concentration, Liver [17]: 966 μg/g tissue
- Serum testosterone level [18]: 8.8 ng/mL
- Plasma BUN [16]: 20.2 mg/dL
- Plasma Creatinine [16]: 0.86 mg/dL
